In data set [1] the target is T1, human 5-HT1A receptors (Homo sapiens, UniProt P08908).
T1 construct: expressed in transfected cells; host or cells: CHO cells
T1 sequence (P08908 1-422): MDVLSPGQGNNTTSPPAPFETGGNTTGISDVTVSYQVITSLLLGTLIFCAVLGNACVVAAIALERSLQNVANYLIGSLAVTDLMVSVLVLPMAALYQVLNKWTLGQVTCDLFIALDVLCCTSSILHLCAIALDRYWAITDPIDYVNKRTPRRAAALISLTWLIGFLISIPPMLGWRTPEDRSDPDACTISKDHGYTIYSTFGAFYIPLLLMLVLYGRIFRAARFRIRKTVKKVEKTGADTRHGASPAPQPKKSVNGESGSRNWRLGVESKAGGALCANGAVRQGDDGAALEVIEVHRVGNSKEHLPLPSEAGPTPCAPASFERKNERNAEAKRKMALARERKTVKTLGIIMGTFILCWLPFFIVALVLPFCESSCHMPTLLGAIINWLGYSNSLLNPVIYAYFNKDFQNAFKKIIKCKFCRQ
In words: [3H] 8-OHDPAT displacement from 5-HT1A receptor in transfected CHO cells. In kind it is binding. The text has this:
High affinity for the serotonin 5-HT1A receptor was established by testing the claimed compound's ability to displace [^3H] 8-OHDPAT (dipropylamino-tetralin) from the 5-HT1A serotonin receptor following a modification of the procedure of Hall et al., J. Neurochem. 44, 1685 (1985) which utilizes CHO cells stably transfected with human 5-HT1A receptors.

Data set [2] addresses T2, serotonin transporter (Rattus norvegicus, UniProt P31652).
T2 construct: displace ^3H-paroxetine from male rat frontal cortical membranes; from tissue; host or cells: male rat frontal cortex membranes
In words: 3H-paroxetine displacement from rat frontal cortical membranes (serotonin transporter affinity). In kind it is binding.

The target in data set [3] is T3, cloned human 5-HT1A receptors (Homo sapiens, UniProt P08908).
T3 construct: expressed in transfected cells
T3 sequence (P08908 1-422): T1 sequence (P08908 1-422)
The data set can be described thus: 35S-GTPγS binding assay, agonist activity at 5-HT1A receptors. In kind it is biochemical. The conditions noted are these: for EC50: 35S-GTPγS binding to membranes containing cloned human 5-HT1A receptors, read-out: 5-HT1A Function EC50; for Emax: read-out: 5-HT1A Function (Emax). On the procedure: Agonist activity at 5-HT1A receptors was established by using a ^35S-GTPγbinding assay similar to that used by Lazareno and Birdsall (Br. J. Pharmacol. 109: 1120, 1993), in which the test compound's ability to affect the binding of ^35S-GTPγS to membranes containing cloned human 5-HT1A receptors was determined. Agonists produce an increase in binding whereas antagonists produce no increase but rather reverse the effects of the standard agonist 8-OHDPAT. The test compound's maximum stimulatory effect is represented as the Emax, while its potency is defined by the EC50.

[4] abbreviates: displacement of [3H] 8-OHDPAT, CHO cells stably transfected with human 5-HT1A receptors, read-out: 5-HT1A Receptor Affinity KI.
[5] abbreviates: displacement of 3H-paroxetine, male rat frontal cortical membranes, read-out: 5-HT Transporter Affinity KI.

Counter-ions that a name gives are not always drawn. Like-named read-outs stand apart in the source and are kept apart here.

T2 sequence (P31652 whole entry): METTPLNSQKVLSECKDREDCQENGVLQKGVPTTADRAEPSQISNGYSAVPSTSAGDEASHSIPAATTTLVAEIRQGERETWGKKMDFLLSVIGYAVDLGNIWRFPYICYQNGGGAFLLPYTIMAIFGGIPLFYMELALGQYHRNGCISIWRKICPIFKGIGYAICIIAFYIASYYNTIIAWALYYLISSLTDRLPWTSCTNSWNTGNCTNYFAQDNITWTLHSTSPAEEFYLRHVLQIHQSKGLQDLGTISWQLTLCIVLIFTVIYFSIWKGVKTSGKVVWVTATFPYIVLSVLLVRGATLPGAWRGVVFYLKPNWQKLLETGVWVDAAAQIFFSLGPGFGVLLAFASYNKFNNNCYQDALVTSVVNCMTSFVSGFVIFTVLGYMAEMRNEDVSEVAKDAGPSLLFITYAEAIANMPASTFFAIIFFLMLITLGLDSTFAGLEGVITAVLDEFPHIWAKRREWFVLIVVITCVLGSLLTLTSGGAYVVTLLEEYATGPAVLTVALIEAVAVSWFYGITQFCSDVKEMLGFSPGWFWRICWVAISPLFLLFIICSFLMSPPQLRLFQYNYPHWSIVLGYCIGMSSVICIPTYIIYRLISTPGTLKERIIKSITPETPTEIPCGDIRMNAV

As a reminder, the Ki is a measure of affinity in units of concentration, obtained from inhibition or displacement. Consider `Fc1ccc2[nH]c(CC3CCN(CC4CCc5ccccc5O4)CC3)cc2c1` (stereo not shown) [Example 1, 2-{[1-(3,4-Dihydro-2H-chromen-2-ylmethyl)-4-piperidinyl]methyl}-5-fluoro-1H-indole], for which the Ki in data set [1] (setting [4]) is 265 nM; in data set [2] (setting [5]), 0.13 nM.
Usually EC50 stands for the concentration needed to bring the measured effect to its halfway point. Turning to `COc1cccc2c1OC(CN1CC=C(c3c[nH]c4ccccc34)CC1)CC2` (stereo not shown) [Example 5, (3-(1-{8-Methoxy-3,4-dihydro-2H-chromen-2-yl]methyl}-1,2,3,6-tetrahydro-4-pyridinyl)-1H-indole], the Ki in data set [1] (setting [4]) came to 39 nM; in data set [2] (setting [5]), 10 nM. Moreover, the EC50 in data set [3] was 189 nM. Besides, the “5-HT1A Function (Emax)” value in data set [3] (maximum stimulatory effect, 35S-GTPγS binding, cloned human 5-HT1A receptors, value in parentheses) is recorded as 79.0.
Usually Emax stands for the size of the effect at its maximum, as opposed to the concentration needed. For orientation: melting point means the temperature, or range, at which the solid turns liquid. On to `COc1cccc2c1OC(CN1CC=C(c3c[nH]c4cc(F)ccc34)CC1)CC2` (stereo not shown) [Example 7, 6-Fluoro-3-(1-{[8-methoxy-3,4-dihydro-2H-chromen-2-yl]methyl}-1,2,3,6-tetrahydro-4-pyridinyl)-1H-indole], for which the melting point is > 170 °C (dec.). This compound had an inhibition constant (Ki) in data set [1] of 45 nM. The compound also showed a Ki in data set [2] of 8.5 nM. In data set [3], the EC50 is 854 nM and the maximum response (Emax) was 64%.
In the same order, the values of `COc1cccc2c1OC(CN1CC=C(c3c[nH]c4ccc(F)cc34)CC1)CC2` (stereo not shown) [Example 4, 5-Fluoro-3-(1-{[8-methoxy-3,4-dihydro-2H-chromen-2-yl]methyl}-1,2,3,6-tetrahydro-4-pyridinyl)-1H-indole] are 177 to 180 °C (dec.), 34.4 nM, 9.5 nM, 283 nM and 92%.
For `C1=C(c2c[nH]c3ccccc23)CCN(CC2CCc3ccccc3O2)C1` (stereo not shown) [Example 2, 3-[1-(3,4-Dihydro-2H-chromen-2-ylmethyl)-1,2,3,6-tetrahydro-4-pyridinyl]-1H-indole], the melting point was in the range of 171 to 173 °C. The inhibition constant Ki in data set [1] (setting [4]) was 281 nM. Moreover, affinity in data set [2] was put at a Ki of 1.18 nM. Besides, the Emax in data set [3] was 50%.
In the case of `COc1cccc2c1OC(CN1CC=C(c3c[nH]c4ccc(F)cc34)CC1)C=C2` (stereo not shown) [Example 8, 5-Fluoro-3-(1-{[8-methoxy-2H-chromen-2-yl]methyl}-1,2,3,6-tetrahydro-4-pyridinyl)-1H-indole], the melting point is 189 to 191 °C (dec.). In data set [1] (setting [4]), the Ki worked out at 143 nM. The compound also displayed a Ki in data set [2] of 20 nM. In addition, in data set [3], the EC50 is 1710 nM and the Emax is 60%.
`COc1cccc2c1OC(CN1CC=C(c3c[nH]c4ccccc34)CC1)C=C2` (stereo not shown) [Example 9, 3-(1-{[8-Methoxy-2H-chromen-2-yl]methyl}-1,2,3,6-tetrahydro-4-pyridinyl)-1H-indole]: the melting point was 198 to 200 °C (dec.). Moreover, in data set [1], the affinity, expressed as Ki, was 96.5 nM. In addition, the inhibition constant (Ki) in data set [2] worked out at 9.5 nM. For the same compound, in data set [3], the concentration for a half-maximal effect (EC50) was found to be 208 nM and the Emax came out at 67%.
On to `Fc1ccc2[nH]cc(C3=CCN(CC4CCc5ccccc5O4)CC3)c2c1` (stereo not shown) [Example 3, 3-[1-(3,4-Dihydro-2H-chromen-2-ylmethyl)-1,2,3,6-tetrahydro-4-pyridinyl]-5-fluoro-1H-indole], for which the melting point is 172 to 175 °C. Besides, the Ki in data set [1] (setting [4]) came out at 299 nM. In data set [2], this compound had an inhibition constant (Ki) of 4.84 nM. For the same compound, in data set [3], the EC50 was 398 nM and the maximum response (Emax) is 83%.
Compound `Fc1ccc2c(C3=CCN(CC4CCc5ccccc5O4)CC3)c[nH]c2c1` (stereo not shown) [Example 6, 3-[1-(3,4-Dihydro-2H-chromen-2-ylmethyl)-1 2,3,6-tetrahydro-4-pyridinyl]-6-fluoro-1H-indole] showed a melting point of 160 to 161 °C. For the same compound, the inhibition constant Ki in data set [2] turned out to be 0.34 nM. Moreover, in data set [3], the 50% effective concentration (EC50) turned out to be 2480 nM and the Emax is 100%.
`Fc1ccc2[nH]c(CC3CCN(CC4CCc5ccccc5O4)CC3)cc2c1` (stereo not shown) (as salt: oxalate) (hydrate or solvate) [Example 1, 2-{[1-(3,4-Dihydro-2H-chromen-2-ylmethyl)-4-piperidinyl]methyl}-5-fluoro-1H-indole] returned a melting point of 187 to 190 °C.

Source of the values: patent publication US6667322B2, “Antidepressant chroman and chromene derivatives of 3-(1,2,3,6-tetrahydro-4-pyridinyl)-1H-indole” (Wyeth, priority 2001, dated 2003).
